Results published in ChEMBL document CHEMBL1151040, “Synthetic inhibitors of interleukin-6 I: 2,3,7,8-tetrahydro-4-aryl-1H-cyclopent [e] imidazo [1,2-a]- pyridin-5(6H)-one and related compounds” (Bioorg Med Chem Lett, 1995).

Experiments:
[1] = tested on: WEHI265.1; assay: In vitro inhibitory activity against lipopolysaccharide (LPS)-induced interleukin 6 production in murine myelomonocytic leukemia (WEHI-265.1) cells at a concentration of 10 uM; assay type: functional; conditions: Mus musculus
[2] = tested on: Mus musculus; assay: Effective dose of compound against serum interleukin 6 (IL-6) in C3H mice when administered intraperitoneally; assay type: functional; conditions: ip
[3] = tested on: WEHI265.1; assay: In vitro inhibitory activity against lipopolysaccharide (LPS)-induced interleukin 6 (IL-6) production in murine myelomonocytic leukemia (WEHI-265.1) cells; assay type: functional, cell-based; conditions: Mus musculus
[4] = tested on: Mus musculus; assay: Inhibitory activity against LPS-induced interleukin 6 (IL-6) in the serum of C3H mice, at a dose of 25 mpk by oral administration; assay type: functional
[5] = tested on: Mus musculus; assay: Inhibitory activity against LPS-induced interleukin 6 (IL-6) in the serum of C3H mice, at a dose of 25 mpk by intraperitoneal administration; assay type: functional; conditions: ip
[6] = tested on: Mus musculus; assay: Effective dose of compound against serum interleukin 6 (IL-6) in C3H mice when administered orally; assay type: functional; conditions: po
[7] = tested on: WEHI265.1; assay: In vitro inhibitory activity against lipopolysaccharide (LPS) -induced IL-6 production in murine myelomonocytic uM; assay type: functional, Mus musculus

OC1=C(c2cccnc2)C2=NCCN2C2=C1CCC2
inhibition at 10 µM [1]: 0%

OC1=CC2=NCCN2C2=C1CCC2
inhibition at 10 µM [1]: 38%

CCOC(=O)C1=C(O)C2=C(CCC2)N2CCN=C12
inhibition at 10 µM [1]: 58%

OC1=C(Sc2ccccc2)C2=NCCN2C2=C1CCC2
inhibition at 10 µM [1]: 63%

CN1CCn2c3c(c(=O)c(-c4ccccc4)c21)CCC3
inhibition at 10 µM [1]: 27%

OC1=C(c2ccccc2C(F)(F)F)C2=NCCN2C2=C1CCC2
inhibition at 10 µM [1]: 90%

COc1ccccc1-c1c2n(c3c(c1=O)CCC3)CCN2
ED50 [2]: 0.3 mg/kg
inhibition at 10 µM [1]: 82%

CC(=O)Nc1ccccc1-c1c2n(c3c(c1=O)CCC3)CCN2
inhibition at 10 µM [1]: 74%
IC50 [3]: 5 µM

Nc1ccccc1-c1c2n(c3c(c1=O)CCC3)CCN2
inhibition in vivo at 25 mg/kg [4]: 72%
ED50 [2]: 4 mg/kg
inhibition at 10 µM [1]: 82%
IC50 [3]: 2 µM

O=c1c2c(n3c(c1-c1ccccc1Cl)NCC3)CCC2
ED50 [2]: 0.5 mg/kg
inhibition at 10 µM [1]: 90%
IC50 [3]: 4 µM

O=c1c2c(n3c(c1-c1ccccc1)N(Cc1ccccc1)CC3)CCC2
inhibition at 10 µM [1]: 43%

O=c1c2c(n3c(c1-c1ccccc1)OCC3)CCC2
inhibition at 10 µM [1]: 20%

O=[N+]([O-])c1ccccc1C1=C(O)C2=C(CCC2)N2CCN=C12
inhibition in vivo at 25 mg/kg [4]: 78%
ED50 [2]: 8 mg/kg
inhibition at 10 µM [1]: 73%
IC50 [3]: 6 µM

O=c1c2c(n3c(c1-c1ccccc1)SCC3)CCC2
inhibition at 10 µM [1]: 52%

OC1=C(c2ccccn2)C2=NCCN2C2=C1CCC2
inhibition at 10 µM [1]: 55%

OC1=C(c2ccccc2O)C2=NCCN2C2=C1CCC2
inhibition at 10 µM [1]: 55%

CSC1=C(O)C2=C(CCC2)N2CCN=C12
inhibition at 10 µM [1]: 77%

CCOC(=O)c1cccc(C2=C(O)C3=C(CCC3)N3CCN=C23)c1
inhibition at 10 µM [1]: 83%
IC50 [3]: 0.6 µM

O=C(O)c1cccc(C2=C(O)C3=C(CCC3)N3CCN=C23)c1
inhibition at 10 µM [1]: 0%

OC1=C(c2ccccc2)C2=NCCN2C2=C1CCC2
inhibition in vivo at 25 mg/kg [5]: 77%
inhibition in vivo at 25 mg/kg [4]: 39%
ED50 [2]: 0.35 mg/kg
ED50 [6]: 32 mg/kg
IC50 [3]: 0.2 µM
Inhibition [7]: 74%
